Where “and” joins values, the source holds several entries; their conditions need not be identical. Equal values may be shown once.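 All cell lines were grown in 96-well plates and treated with compound for 48 hours. At the GI50, growth is halved. TGI: total growth inhibition.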
Tests used:
Test in all cases: NCI tumour cell line growth inhibition, 48 h
[1] = tested on: COLO 205 colon
[2] = tested on: HCC-2998 colon
[3] = tested on: HL-60(TB) leukemia
[4] = tested on: HOP-92 NSCLC
[5] = tested on: LOX IMVI melanoma
[6] = tested on: M14 melanoma
[7] = tested on: RXF 393 renal
[8] = tested on: SK-MEL-28 melanoma
[9] = tested on: UACC-62 melanoma
[10] = tested on: UO-31 renal

| SMILES | GI50 [1] | TGI [1] | GI50 [2] | TGI [2] | GI50 [3] | TGI [3] | GI50 [4] | TGI [4] | GI50 [5] | TGI [5] | GI50 [6] | TGI [6] | GI50 [7] [µM] | TGI [7] | GI50 [8] | TGI [8] | GI50 [9] | TGI [9] | GI50 [10] | TGI [10] |
| --- | --- | --- | --- | --- | --- | --- | --- | --- | --- | --- | --- | --- | --- | --- | --- | --- | --- | --- | --- | --- |
| OB([O][Hg][c]1ccccc1)[O][Hg][c]1ccccc1 | 0.502 µM | 1.46 µM | 1.86 µM | 3.36 µM | 0.0886 µM | 0.378 µM | 0.185 µM | 0.528 µM | 0.173 µM | 0.366 µM | 0.283 µM | 0.977 µM | 0.229 | 0.829 µM | 0.318 µM | 1.33 µM | 0.454 µM | 1.69 µM | 0.539 µM | 1.63 µM |
| CCOC(=O)/N=c1\ss/c(=N\C(=S)N(C)C)n1-c1ccccc1 | > 100 µM | > 100 µM | > 100 µM | > 100 µM | > 100 µM | > 100 µM |  | 94.2 µM |  | > 100 µM | > 100 µM | > 100 µM | 15.3 | 7.13 µM and 44.2 µM | 28.7 µM | > 100 µM |  | > 100 µM | > 100 µM | > 100 µM |
| COc1ccc(/C(=C/c2cc(OC)c(OC)c(OC)c2)[N+](=O)[O-])cc1 | 1.79 µM | 3.74 µM | 1.81 µM | 3.28 µM | 1.61 µM | 5.59 µM | 1.44 µM | 3.09 µM | 1.62 µM | 3.07 µM | 1.79 µM | 3.72 µM | 1.73 | 3.32 µM | 1.88 µM | 3.9 µM | 1.56 µM | 3.07 µM | 1.3 µM | 2.62 µM |
| COc1cc(CCc2cc(NC(=O)c3ccc(N4C[C@@H](C)N[C@@H](C)C4)cc3)n[nH]2)cc(OC)c1 | 3.58 µM and 3.61 µM | > 10 µM and 11.5 µM | > 10 µM and 6.77 µM | > 10 µM and 19.5 µM | 2.47 µM and 4.15 µM | > 10 µM and 14.9 µM | 1.95 µM and 1.96 µM | > 10 µM and 12.8 µM | 2.93 µM and 2.66 µM | > 10 µM and 10.3 µM | 7.13 µM and 2.77 µM | > 10 µM and 10.9 µM |  | 7.97 µM and 9.67 µM | > 10 µM and 7.74 µM | > 10 µM and 20.9 µM | > 10 µM and 6.82 µM | > 10 µM and 21.2 µM | 2.84 µM and 2.7 µM | > 10 µM and 13.9 µM |
| N#C/C(=C\c1c(-c2ccccc2)[nH]c2ccccc12)C(=O)c1ccc(Cl)cc1 | 0.814 µM | 5.43 µM | 2.11 µM | 19.5 µM | 0.385 µM | 3.17 µM | 3.35 µM | 22.1 µM | 4.76 µM | > 100 µM | 0.725 µM | > 100 µM | 19.5 | > 100 µM | 3.33 µM | 41.2 µM | 1.46 µM | 33.9 µM | 5.85 µM | 36.3 µM |
| N[C@H]1C2C3CC4C5CC(C42)C1(c1ccccc1)C53 (stereo partly specified) |  | > 100 µM |  | > 100 µM |  | > 100 µM |  | > 100 µM |  | > 100 µM |  | > 100 µM |  | > 100 µM |  | > 100 µM |  | > 100 µM |  | > 100 µM |
| COC(=O)[C@]12CC[C@@H](C)[C@H](C)[C@@H]1C1=CC[C@@H]3[C@@]4(C)CC(=O)[C@H](O)[C@@]5(C)COC(=C45)C[C@@]3(C)[C@]1(C)CC2 | 17.9 µM | 33.5 µM | 17.7 µM | 33.1 µM | 19.5 µM | 40.9 µM | 14.3 µM | 29.1 µM | 17 µM | 31.1 µM | 18.5 µM | 36.9 µM | 15.2 | 31.4 µM | 19.2 µM | 38.6 µM | 15.7 µM | 31.6 µM | 16.9 µM | 32.8 µM |
| Cc1cc(Br)cc(C)c1NC(=O)C(=O)CC(=O)c1sc(-n2nc(-c3ccccc3)cc2-c2ccccc2)nc1C |  | > 100 µM |  | > 100 µM |  | > 100 µM |  | > 100 µM |  | > 100 µM |  | > 100 µM |  | > 100 µM |  | > 100 µM |  | > 100 µM |  | > 100 µM |
| CCCCCCCCCCCCCCCCCCNC(=O)[C@H]1CSC(c2ccc(OC)c(F)c2)N1 (stereo partly specified) | > 39.1 µM | > 60.5 µM | 1.98 µM | 7.02 µM | 1.96 µM | 4.65 µM | 7.48 µM | 28.9 µM | 2.68 µM | 15.8 µM | 1.43 µM | 3.5 µM | 2.34 | 5.5 µM | 1.42 µM | 3.52 µM | 1.72 µM | 3.82 µM | > 32.8 µM | > 48.4 µM |
| COc1cc[nH]c1/C=C1\C(=O)Nc2ccc(F)c(C#C[C@@H](O)[C@@H](N)[C@@H](C)O)c21 | 0.303 µM | 0.743 µM | 0.727 µM | 2.64 µM | 0.42 µM | 1.55 µM | 0.517 µM | 1.96 µM | 0.516 µM | 2.5 µM | 0.413 µM | 1.24 µM | 0.279 | 0.955 µM | 0.648 µM | 2.86 µM | 0.277 µM | 0.853 µM | 0.745 µM | 2.7 µM |
| Cc1c(NC(=O)C(=O)N=NC(=O)c2ccncc2)c(O)c2ccccc2c1O |  | 32.3 µM |  | 30.7 µM |  | > 67.5 µM |  | 33.5 µM |  | 19.1 µM |  | 22.7 µM |  | 32.6 µM |  | 31.7 µM |  | 6.07 µM |  | 40.5 µM |
| CCCCOC(=O)C(=O)C(CC(C(=O)Cc1ccccc1)c1ccccc1)C(=O)C=C(C)C (stereo unspecified) |  | > 100 µM |  | > 100 µM |  | > 100 µM |  | > 100 µM |  | > 100 µM |  | > 100 µM |  | > 100 µM |  | > 100 µM |  | > 100 µM |  | > 100 µM |
